ChEMBL document CHEMBL1201862, “PubChem BioAssay data set” (2004)
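Protocol summary: plate cells (96-well), add compound at 5 concentrations, incubate 48 h, interpolate endpoints linearly. GI50 = concentration required for 50% inhibition of growth.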 Active and inactive are the calls of the source. Rule as the data show it: active = GI50 up to about 1.1 µM and inactive = higher. Where a SMILES comes first, the peptide text is derived from it. The star is where a group is joined. Cbz = O=C(OCc1ccccc1)*; OBn = c1ccc(CO*)cc1

What was measured:
Assay in all cases: DTP human tumour cell line panel, 48 h
SF-539 = test system: SF-539
HOP-92 = test system: HOP-92
SNB-75 = test system: SNB-75
SK-MEL-28 = test system: SK-MEL-28
SF-268 = test system: SF-268
OVCAR-5 = test system: OVCAR-5
786-0 = test system: 786-0
NCI/ADR-RES = test system: NCI/ADR-RES
UACC-257 = test system: UACC-257
OVCAR-3 = test system: OVCAR-3
MDA-N = test system: MDA-N
NCI-H226 = test system: NCI-H226
M14 = test system: M14
KM12 = test system: KM12
A549 = test system: A549
OVCAR-4 = test system: OVCAR-4
LOX IMVI = test system: LOX IMVI
HL-60 = test system: HL-60
SR = test system: SR

| SMILES | GI50 (SF-539) | GI50 (HOP-92) | GI50 (SNB-75) | GI50 (SK-MEL-28) | GI50 (SF-268) | GI50 (OVCAR-5) | GI50 (786-0) | GI50 (NCI/ADR-RES) | GI50 (UACC-257) | GI50 (OVCAR-3) | GI50 (MDA-N) | GI50 (NCI-H226) | GI50 (M14) | GI50 (KM12) | GI50 (A549) | GI50 (OVCAR-4) | GI50 (LOX IMVI) | GI50 (HL-60) | GI50 (SR) |
| --- | --- | --- | --- | --- | --- | --- | --- | --- | --- | --- | --- | --- | --- | --- | --- | --- | --- | --- | --- |
| COc1ccc(-c2oc3c(OC)c(OC)cc(O)c3c(=O)c2OC)cc1 | 28.8 µM (inactive) | 42.8 µM (inactive) | > 10 µM (inactive) | > 100 µM (inactive) | > 100 µM (inactive) | > 100 µM (inactive) | > 100 µM (inactive) | > 100 µM (inactive) | > 100 µM (inactive) | > 100 µM (inactive) | > 100 µM (inactive) | > 100 µM (inactive) | > 100 µM (inactive) | > 100 µM (inactive) | > 100 µM (inactive) | > 100 µM (inactive) | 65 µM (inactive) | > 100 µM (inactive) |  |
| CCOC(=O)C(C(=O)Cc1ccccc1)c1ccccc1 (centres undefined) | > 100 µM (inactive) | 57 µM (inactive) | 80 µM (inactive) | > 100 µM (inactive) | > 100 µM (inactive) | > 100 µM (inactive) | > 100 µM (inactive) |  | > 100 µM (inactive) | > 100 µM (inactive) |  | > 100 µM (inactive) | > 100 µM (inactive) | > 100 µM (inactive) | > 100 µM (inactive) | > 100 µM (inactive) | > 100 µM (inactive) | > 100 µM (inactive) | > 100 µM (inactive) |
| COc1cc2c(/C=C3/C(=O)Nc4ccccc43)c(Cl)n(Cc3ccc(Cl)cc3)c2cc1C | 0.27 µM (active) | 11.8 µM (inactive) | 0.237 µM (active) | 0.386 µM (active) | 0.675 µM (active) | 0.656 µM (active) | 0.323 µM (active) | 0.225 µM (active) | 0.378 µM (active) | 0.207 µM (active) |  | 0.336 µM (active) | 0.296 µM (active) | 0.33 µM (active) | 0.366 µM (active) | 0.632 µM (active) | 0.344 µM (active) | 0.373 µM (active) | 0.209 µM (active) |
| Cc1nc2ccc(NC3OC(CO)C(O)C(O)C3O)cc2c(=O)n1-c1ccccc1 (centres undefined) |  |  | > 100 µM (inactive) | > 100 µM (inactive) | > 100 µM (inactive) | > 100 µM (inactive) | > 100 µM (inactive) | > 100 µM (inactive) | > 100 µM (inactive) | > 100 µM (inactive) | > 100 µM (inactive) | > 100 µM (inactive) |  | 92.7 µM (inactive) |  | > 100 µM (inactive) | > 100 µM (inactive) | > 100 µM (inactive) |  |
| Cc1ccc(C2=Nc3ccccc3[S+]([O-])C(c3ccc4c(c3)OCO4)C2)cc1 (centres undefined) | 21.2 µM (inactive) |  | 88.3 µM (inactive) | 24.5 µM (inactive) | 19.5 µM (inactive) |  | 19.9 µM (inactive) |  | 29.7 µM (inactive) | 27.7 µM (inactive) |  | 52.6 µM (inactive) | 17.6 µM (inactive) | 18.2 µM (inactive) | 28.6 µM (inactive) | 29.3 µM (inactive) | 15.9 µM (inactive) | 19.1 µM (inactive) | 22.2 µM (inactive) |
| COc1cccc(CC(C)NCC(O)c2ccc(O)c(O)c2)c1 (centres undefined) | 37.2 µM (inactive) | 6.59 µM (inactive) | 19 µM (inactive) | 52.1 µM (inactive) | 50.5 µM (inactive) | 17.3 µM (inactive) | 37.8 µM (inactive) | > 100 µM (inactive) | 34.1 µM (inactive) | 26.6 µM (inactive) |  | 24.8 µM (inactive) | 38 µM (inactive) | 55.5 µM (inactive) | 57 µM (inactive) | 18.5 µM (inactive) | 43.3 µM (inactive) |  | 17.4 µM (inactive) |
| COc1cccc(CCNC(=O)Cc2ccccc2CCO)c1 | > 100 µM (inactive) | > 100 µM (inactive) | > 100 µM (inactive) | > 100 µM (inactive) | > 100 µM (inactive) | > 100 µM (inactive) | > 100 µM (inactive) | > 100 µM (inactive) | > 100 µM (inactive) | > 100 µM (inactive) |  | > 100 µM (inactive) | > 100 µM (inactive) | > 100 µM (inactive) | > 100 µM (inactive) | > 100 µM (inactive) |  | > 100 µM (inactive) | > 100 µM (inactive) |
| COC1C=COC2(C)Oc3c(C)c(O)c4c(O)c(c(C5SCCS5)c(O)c4c3C2=O)NC(=O)/C(C)=C\C=CC(C)C(O)C(C)C(O)C(C)C(OC(C)=O)C1C (centres undefined) | 8.15 µM (inactive) | 10.1 µM (inactive) | 7.53 µM (inactive) | 6.56 µM (inactive) | 11 µM (inactive) | 12.7 µM (inactive) | 8.87 µM (inactive) | 15.5 µM (inactive) | 4.7 µM (inactive) | 4.99 µM (inactive) |  | 9.04 µM (inactive) | 6.19 µM (inactive) | 5.35 µM (inactive) | 6.79 µM (inactive) | 7.33 µM (inactive) | 2.18 µM (inactive) | 4.02 µM (inactive) | 3.15 µM (inactive) |
| CCOC(=O)N1N=NC2C3OC(C[C@@]3(C#N)OC(C)=O)[C@H]21 (some centres undefined) | > 100 µM (inactive) | > 100 µM (inactive) | > 100 µM (inactive) | > 100 µM (inactive) | 51.9 µM (inactive) | > 100 µM (inactive) | > 100 µM (inactive) |  | > 100 µM (inactive) | > 100 µM (inactive) |  | > 100 µM (inactive) | > 100 µM (inactive) | > 100 µM (inactive) | > 100 µM (inactive) | > 100 µM (inactive) | > 100 µM (inactive) | > 100 µM (inactive) | > 100 µM (inactive) |
| C[N+](C)([O-])Cc1cccc(NC(=O)c2ccc(C(=O)Nc3cccc(C[N+](C)(C)[O-])c3)cc2)c1 | > 100 µM (inactive) | > 100 µM (inactive) |  | > 100 µM (inactive) | > 100 µM (inactive) | > 100 µM (inactive) | > 100 µM (inactive) | > 100 µM (inactive) | > 100 µM (inactive) | > 100 µM (inactive) |  | > 100 µM (inactive) | > 100 µM (inactive) | > 100 µM (inactive) | > 100 µM (inactive) | > 100 µM (inactive) | > 100 µM (inactive) | > 100 µM (inactive) | > 100 µM (inactive) |
| C=CCn1c(-c2ccc(/N=N/Nc3ccc(-c4n[nH]c(=S)n4CC=C)cc3)cc2)n[nH]c1=S |  | 7.31 µM (inactive) | 3.93 µM (inactive) | 6.9 µM (inactive) | 5.06 µM (inactive) | 28 µM (inactive) | 8.41 µM (inactive) | 21.4 µM (inactive) | 3.33 µM (inactive) | 2.52 µM (inactive) |  | 2.32 µM (inactive) | 3.03 µM (inactive) | 3.04 µM (inactive) | 3.52 µM (inactive) | 2.53 µM (inactive) | 3.4 µM (inactive) |  | 2.84 µM (inactive) |
| S=C(/N=c1/sc(Nc2ccccc2)nc2sc3c(c12)CCCC3)Nc1ccccc1 |  | > 62.5 µM (inactive) |  | > 62.5 µM (inactive) | > 62.5 µM (inactive) | > 62.5 µM (inactive) | > 62.5 µM (inactive) |  | > 62.5 µM (inactive) | > 62.5 µM (inactive) | > 62.5 µM (inactive) | > 62.5 µM (inactive) |  | > 62.5 µM (inactive) |  | > 62.5 µM (inactive) | > 62.5 µM (inactive) | > 62.5 µM (inactive) | > 62.5 µM (inactive) |
| Cc1cc(OCc2nnc3n2S(=O)(=O)c2ccccc2N3C)ccc1Cl | 16.7 µM (inactive) | 16.1 µM (inactive) |  | 86.5 µM (inactive) | 16.3 µM (inactive) | > 100 µM (inactive) | 11.8 µM (inactive) | 35.7 µM (inactive) | 61 µM (inactive) | 19.5 µM (inactive) |  | 31.2 µM (inactive) | > 100 µM (inactive) | > 100 µM (inactive) | 44.9 µM (inactive) | 8 µM (inactive) | 33.7 µM (inactive) | 21 µM (inactive) |  |
| Cc1cccc(NC(=O)CC(=O)N2N=C(N3c4ccccc4Sc4ccccc43)CC2c2ccccc2)c1 (centres undefined) | > 100 µM (inactive) | > 100 µM (inactive) | > 100 µM (inactive) | > 100 µM (inactive) | > 100 µM (inactive) | > 100 µM (inactive) | > 100 µM (inactive) | > 100 µM (inactive) | > 100 µM (inactive) | > 100 µM (inactive) |  | > 100 µM (inactive) | > 100 µM (inactive) | > 100 µM (inactive) | > 100 µM (inactive) | > 100 µM (inactive) |  | > 100 µM (inactive) | > 100 µM (inactive) |
| Oc1cc(O)cc(-c2nc3cc(F)ccc3s2)c1 | 29 µM (inactive) |  |  | 48.8 µM (inactive) | 19.4 µM (inactive) | 20.8 µM (inactive) | 20.6 µM (inactive) | 36.8 µM (inactive) | 16.4 µM (inactive) | 22.6 µM (inactive) | 30.5 µM (inactive) | 25.8 µM (inactive) | 19.4 µM (inactive) | 20.4 µM (inactive) | 26.1 µM (inactive) | 18.5 µM (inactive) | 18.5 µM (inactive) |  |  |
| COC(=O)C(Cc1ccc(O)cc1)NC(=O)C(CC(=O)OCc1ccccc1)NC(=O)OCc1ccccc1 (centres undefined) (Cbz-Asp(OBn)-Tyr-OMe; configuration not given here) |  | 51.1 µM (inactive) | 17.9 µM (inactive) | 17.1 µM (inactive) |  | 22.7 µM (inactive) | 18.2 µM (inactive) |  | 21.2 µM (inactive) |  | 19.4 µM (inactive) | 21.4 µM (inactive) | 22.2 µM (inactive) | 22.6 µM (inactive) | 20.7 µM (inactive) |  |  | 25.6 µM (inactive) | 22.8 µM (inactive) |
